Reference: patent US10975432B2, “Tagged multi-nucleotides useful for nucleic acid sequencing” (Roche Sequencing Solutions, Inc., priority 2016, dated 2021)

Legend:
[1] = system: exonuclease deficient variant of the Pol6 polymerase; experiment: Displacement assay of single-, double-, triple- and quadruple-nucleotide substrates (Example 3); type: biochemical
Description: The assay is a displacement assay using an exonuclease deficient variant of the Pol6 polymerase as described in Example 2, wherein polymerase activity is followed by fluorometrically monitoring the change in FRET between the Cy5 and BHQ labels as the polymerase incorporates the substrates in the DNA extension reaction.
Briefly, an assay solution containing the Pol6 polymerase, the 5′-Cy5-labelled displacement DNA template of SEQ ID NO: 124, and the 3′-BHQ-labelled quencher primer of SEQ ID NO: 124 in 75 mM potassium glutamate (“K-Glu”) is prepared in the absence of the substrate or Mg^2+ ion. A substrate solution is prepared containing either the multi-nucleotide compound to be assayed (i.e., “Y-Tag,” “W-Tag,” or “Q-Tag”), the non-tagged dT6P (“Hexa-PO4), or the tagged single nucleotide substrate, dA6P-dT30-C3 (“Full Tag”) of compound (3d). Also included in the substrate solution are the other three nucleotide-hexaphosphate (“dN6P”) substrates required for polymerase synthesis of a strand complementary to the DNA template (i.e., dA6P, dC6P, dG6P). This substrate solution is added to the polymerase solution. Assays are carried out for each of the test substrates at the following initial concentrations: 0.25 μM, 0.5 μM, 1.0 μM, 2.0 μM, 4.0 μM, and 8.0 μM. Additional K-Glu is added to bring the total K-Glu concentration in the mixture up to 300 mM. The polymerase reaction is then initiated by addition of MgCl2. Final concentrations in the assay reaction mixture are: 100 nM Pol6 enzyme, 50 nM Cy5 displacement DNA template, 40 μM each of other dN6P substrates, 300 mM K-Glu, 25 mM HEPES, 0.2 mM EDTA, 0.05% Triton X-100, 5 mM TCEP, 25 μg/mL BSA, 5 mM MgCl2, pH 7.5.

[2] = system: α-HL-Pol6 nanopore-polymerase conjugate

With Cc1cn([C@H]2C[C@H](O)[C@@H](COP(=O)(O)OP(=O)(O)OP(=O)(O)OP(=O)(O)OP(=O)(O)OP(=O)(O)O)O2)c(=O)[nH]c1=O [dT6P] the “Rate (Bases/sec)” value ([1]; Initial Conc. Tag 0.25 μM) was 0.57 Bases/sec, the “Rate (Bases/sec)” value ([1]; Initial Conc. Tag 0.5 μM) was 2.87 Bases/sec and the “Rate (Bases/sec)” value ([1]; Initial Conc. Tag 1.0 μM) was 3.48 Bases/sec. The “Rate (Bases/sec)” value ([1]; Initial Conc. Tag 2.0 μM) was 3.89 Bases/sec, the “Rate (Bases/sec)” value ([1]; Initial Conc. Tag 4.0 μM) was 4.48 Bases/sec and the “Rate (Bases/sec)” value ([1]; Initial Conc. Tag 8.0 μM) was 4.24 Bases/sec.
For “(dA6P)2-dT5-(BHEB)-dT14-C3: two dA6P linked via doubler-linker to tag SEQ ID NO: 109 (DNA TTTTTNTTTTTTTTTTTTTT; two dA6P via doubler linker, BHEB, C3 cap, chemistry not fully specified)”, the Blocking current level [2] was 0.88+/−0.03 Fraction of Open Current.
“(dC6P)2-dT20-C3: two dC6P linked via doubler-linker to tag SEQ ID NO: 105 (DNA tttttttttttttttttttt; two dC6P via doubler linker, C3 cap; (20)..(20) T-propanol)” was tested, and the Blocking current level [2] was 0.76+/−0.04 Fraction of Open Current.
In the case of “(dG6P)2-dT6-(Tmp)6-dT8-C3: two dG6P linked via doubler-linker to tag SEQ ID NO: 107 (DNA TTTTTTNNNNNNTTTTTTTT; two dG6P via doubler linker, Tmp, C3 cap; (7)..(12) thymidine methylphosphonate; (20)..(20) T-propanol)”, the Blocking current level [2] is reported as 0.38+/−0.08 Fraction of Open Current.
“(dT6P)2-dT4-(N3CE-dT)3-dT13-C3: two dT6P linked via doubler-linker to tag SEQ ID NO: 106 (DNA TTTTNNNTTTTTTTTTTTTT; chemistry not fully specified)” was tested, and the Blocking current level [2] was 0.62+/−0.05 Fraction of Open Current.
